Data taken from US20050048127A1, “Small spherical particles of low molecular weight organic molecules and methods of preparation and use thereof” (priority 2003, published 2005).

Tests used:
[1] = Particle morphology and size by scanning electron microscopy (SEM); assay type: physicochemical; settings: broad distribution, some particles larger than upper value
Protocol: Particle morphology for the following examples was obtained using Scanning Electron Microscopy (SEM, FEI Quanta 200, Hilsboro, Oreg.). The sample was prepared for analysis by placing a small amount on carbon double-stick tape fixed to an aluminum sample mount. The sample was then sputter-coated using a Cressington sputter coater 108 Auto for 90 seconds and 20 mA. A second SEM instrument (Amray 1000, Bedford, Mass.) was used to obtain additional images of the small spherical particles, due to its higher resolution capabilities. Particle morphology for the following examples was obtained using Scanning Electron Microscopy (FEI Quanta 200, Hilsboro, Oreg.). FIG. 4 presents SEM of micronized budesonide starting material and FIG. 5 presents SEM of the resulting budesonide small spherical particles.

[2] = Formation of small spherical particles from first/second solvent mixtures on glass slide under nitrogen flow, graded by polarized light microscope; assay type: physicochemical; set-up: key: (+) = predominantly small spherical particles; (+/−) = a mixture of small spherical particles and non-spherical particles; (−) = predominantly non-spherical particles; ppt = the steroid precipitated out during addition of the second solvent
Description: The ability to form small spherical particles of two steroids, beclomethasone dipropionate (BDP) and fluticasone propionate (FP) was examined in matrix experiments using acetone, ethanol, methanol, and methyl ethyl ketone (MEK) individually as the first solvents and water and heptane individually as the second solvents. The amount of second solvent added to the first solvent/steroid solution was varied as 0%, 10%, 20%, 30%, and 40% (v/v). MEK is not miscible with water and methanol is not miscible with heptane, so those combinations were not included in the experiment.
Either BDP or FP was weighed into a large screw cap glass tube and the solvent of choice was added (w/v) to yield a final concentration of 2 mg/mL. The tubes were vortexed and sonicated to completely dissolve the steroid. The sealed tubes containing these solutions were used as stock solutions for subsequent mixture with the appropriate second solvent. Immediately prior to use, an appropriate amount of the second solvent was slowly added to the first solvent/steroid solution while mixing to avoid premature precipitation. After adding the second solvent, the solutions were visually examined to ensure that premature precipitation had not occurred.
A fixture was constructed such that a 0.125-inch diameter orifice nozzle was positioned 1.75 inches above a standard glass microscope slide. Nitrogen gas was allowed to flow at 5 liters per minute through the nozzle and over the slide such that the flow direction of the gas was perpendicular to the surface of the slide. One or two drops of the test solution were placed on the slide directly under the orifice, and the nitrogen flow continued until the slide was dry (one to three minutes depending on the solution composition). Each slide was then examined under a polarized light microscope (Leica EPISTAR, Buffalo, N.Y.) using incident lighting. Each slide was graded for the presence of predominantly small spherical particles (+), a mixture of small spherical particles and non-spherical particles (+/−), and predominantly non-spherical particles (−). Variations in size and size distribution were observed between different test solutions.

[3] = first solvent MEK, 0% second solvent (2 mg/mL stock solution)
[4] = first solvent acetone, 0% second solvent (2 mg/mL stock solution)
[5] = first solvent acetone, 10% heptane
[6] = first solvent acetone, 10% water
[7] = first solvent acetone, 20% heptane
[8] = first solvent acetone, 20% water
[9] = first solvent acetone, 30% heptane
[10] = first solvent acetone, 30% water
[11] = first solvent acetone, 40% heptane
[12] = first solvent acetone, 40% water
[13] = first solvent ethanol, 0% second solvent (2 mg/mL stock solution)
[14] = first solvent ethanol, 10% heptane
[15] = first solvent ethanol, 10% water
[16] = first solvent ethanol, 20% heptane
[17] = first solvent ethanol, 20% water
[18] = first solvent ethanol, 30% heptane
[19] = first solvent ethanol, 30% water
[20] = first solvent ethanol, 40% heptane
[21] = first solvent ethanol, 40% water
[22] = first solvent methanol, 0% second solvent (2 mg/mL stock solution)
[23] = first solvent methanol, 10% water
[24] = first solvent methanol, 20% water
[25] = first solvent methanol, 30% water
[26] = first solvent methanol, 40% water

Compound | Formation of small spherical particles [2, 3] | Formation of small spherical particles ([2]; first solvent MEK, 10% heptane) | Formation of small spherical particles ([2]; first solvent MEK, 20% heptane) | Formation of small spherical particles ([2]; first solvent MEK, 30% heptane) | Formation of small spherical particles ([2]; first solvent MEK, 40% heptane) | Formation of small spherical particles [2, 4] | Formation of small spherical particles [2, 5] | Formation of small spherical particles [2, 6] | Formation of small spherical particles [2, 7] | Formation of small spherical particles [2, 8] | Formation of small spherical particles [2, 9] | Formation of small spherical particles [2, 10] | Formation of small spherical particles [2, 11] | Formation of small spherical particles [2, 12] | Formation of small spherical particles [2, 13] | Formation of small spherical particles [2, 14] | Formation of small spherical particles [2, 15] | Formation of small spherical particles [2, 16] | Formation of small spherical particles [2, 17] | Formation of small spherical particles [2, 18] | further results
CCC(=O)OCC(=O)[C@@]1(OC(=O)CC)[C@@H](C)C[C@H]2[C@@H]3CCC4=CC(=O)C=C[C@]4(C)[C@@]3(Cl)[C@@H](O)C[C@@]21C [micronized BDP starting material, beclomethasone dipropionate] |  |  |  |  |  |  |  |  |  |  |  |  |  |  |  |  |  |  |  |  | particle size distribution [1]: 5-50 microns
CCC(=O)OCC(=O)[C@@]1(OC(=O)CC)[C@@H](C)C[C@H]2[C@@H]3CCC4=CC(=O)C=C[C@]4(C)[C@@]3(Cl)[C@@H](O)C[C@@]21C [Beclomethasone dipropionate] | +/− | + | + | + | + | + | + | + | + | + | +/− | + | +/− | + | + | + | + | +/− | + | +/− | Formation of small spherical particles [2, 19]: +; Formation of small spherical particles [2, 20]: +/−; Formation of small spherical particles [2, 21]: +; Formation of small spherical particles [2, 22]: +; Formation of small spherical particles [2, 23]: +; Formation of small spherical particles [2, 24]: +; Formation of small spherical particles [2, 25]: +; Formation of small spherical particles [2, 26]: +
CCC(=O)O[C@]1(C(=O)SCF)[C@H](C)C[C@H]2[C@@H]3C[C@H](F)C4=CC(=O)C=C[C@]4(C)[C@@]3(F)[C@@H](O)C[C@@]21C [Fluticasone propionate] | +/− | − | − | − | − | + | + | + | + | +/− | +/− | − | +/− | − | +/− | − | +/− | − | +/− | − | Formation of small spherical particles [2, 19]: −; Formation of small spherical particles [2, 20]: −; Formation of small spherical particles [2, 21]: −; Formation of small spherical particles [2, 22]: −; Formation of small spherical particles [2, 23]: −; Formation of small spherical particles [2, 24]: ppt; Formation of small spherical particles [2, 25]: ppt; Formation of small spherical particles [2, 26]: ppt
